Data reported in the supplement of paper PMC10307832.

The cell lines below were run with COCC[n+]1c2c(n(Cc3cnccn3)c1C)C(=O)c1ccccc1C2=O [YM155] + Nc1nc2[nH]cc(CCc3ccc(C(=O)N[C@@H](CCC(=O)O)C(=O)O)cc3)c2c(=O)[nH]1 [Pemetrexed] (partner 0.2 µM) (assay: relative viability (nuclei count vs DMSO), 5 days (fraction); higher = more cells survive). Conditions: first compound 0.002 µM.
In short: (§1)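 Lung cancer cell lines, seeded in 1536-well plates, were treated the following day by pin tool with a single drug or with five library-drug doses (not always all listed) in √10 steps on top of a fixed anchor-drug dose. Cells were fixed and nuclei stained in one step after 5 days, and nuclei were counted. Relative viability is the nuclei count for treated wells divided by that for vehicle wells, reported as medians of duplicate plates.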

Row | Cell Line | relative viability
1 | LCLC-103H | 0.473
2 | NCI-H661 | 0.935
3 | NCI-H358 | 0.181
4 | NCI-H2342 | 0.75
5 | HCC-44 | 0.615
6 | NCI-H522 | 0.841

Same assay, conditions: first compound 0.006325 µM

Row | Cell Line | relative viability
7 | EKVX | 0.437
8 | EPLC-272H | 0.309
9 | NCI-H520 | 0.74
10 | NCI-H1563 | 0.726
11 | NCI-H650 | 0.744
12 | RERF-LC-KJ | 0.467
13 | HCC-827 | 0.328
14 | NCI-H2087 | 0.677
15 | NCI-H1792 | 0.762
16 | LCLC-103H | 0.453
17 | SW 900 | 0.492
18 | NCI-H661 | 0.961
19 | NCI-H358 | 0.172
20 | NCI-H2342 | 0.742
21 | HCC-44 | 0.722
22 | NCI-H522 | 0.938

Same assay, conditions: first compound 0.02 µM

Row | Cell Line | relative viability
23 | EKVX | 0.399
24 | EPLC-272H | 0.316
25 | NCI-H520 | 0.685
26 | NCI-H1563 | 0.86
27 | NCI-H650 | 0.966
28 | RERF-LC-KJ | 0.487
29 | HCC-827 | 0.253
30 | NCI-H2087 | 0.685
31 | NCI-H1792 | 0.805
32 | LCLC-103H | 0.416
33 | SW 900 | 0.489
34 | NCI-H661 | 0.919
35 | NCI-H358 | 0.167
36 | NCI-H2342 | 0.764
37 | HCC-44 | 0.624
38 | NCI-H522 | 0.92

Same assay, conditions: first compound 0.06325 µM

Row | Cell Line | relative viability
39 | EKVX | 0.234
40 | EPLC-272H | 0.319
41 | NCI-H520 | 0.694
42 | NCI-H1563 | 0.745
43 | NCI-H650 | 1.08
44 | RERF-LC-KJ | 0.471
45 | HCC-827 | 0.303
46 | NCI-H2087 | 0.604
47 | NCI-H1792 | 0.971
48 | LCLC-103H | 0.463
49 | SW 900 | 0.47
50 | NCI-H661 | 0.485
51 | NCI-H358 | 0.127
52 | NCI-H2342 | 0.788
53 | HCC-44 | 0.643
54 | NCI-H522 | 0.899

What follows are cell lines tested with COCC[n+]1c2c(n(Cc3cnccn3)c1C)C(=O)c1ccccc1C2=O [YM155] + COc1cc2c(Oc3ccc(NC(=O)C4(C(=O)Nc5ccc(F)cc5)CC4)cc3F)ccnc2cc1OCCCN1CCOCC1 [Foretinib] (partner 0.25 µM) in the same assay as above. Conditions: first compound 0.002 µM.
In short: as §1

Row | Cell Line | relative viability
55 | EKVX | 0.858
56 | EPLC-272H | 0.694
57 | NCI-H520 | 0.662
58 | NCI-H1563 | 0.89
59 | NCI-H650 | 0.985
60 | RERF-LC-KJ | 0.945
61 | HCC-827 | 1.03
62 | NCI-H2087 | 1.17
63 | NCI-H1299 | 1.12
64 | NCI-H1623 | 0.89
65 | Calu-6 | 0.882
66 | NCI-H1703 | 0.309
67 | EBC-1 | 0.0935
68 | LCLC-103H | 0.802
69 | ABC-1 | 1.03
70 | IA-LM | 1.15
71 | SW 900 | 0.874
72 | NCI-H661 | 1.03
73 | NCI-H358 | 0.653
74 | A549 | 0.923
75 | NCI-H2342 | 1
76 | NCI-H727 | 0.951

Same assay, conditions: first compound 0.006325 µM

Row | Cell Line | relative viability
77 | EKVX | 0.757
78 | EPLC-272H | 0.71
79 | NCI-H520 | 0.671
80 | NCI-H1563 | 0.935
81 | NCI-H650 | 0.932
82 | RERF-LC-KJ | 0.837
83 | HCC-827 | 1.09
84 | NCI-H2087 | 0.968
85 | NCI-H1299 | 1.07
86 | NCI-H1623 | 0.865
87 | Calu-6 | 0.845
88 | NCI-H1703 | 0.355
89 | EBC-1 | 0.0954
90 | LCLC-103H | 0.722
91 | ABC-1 | 0.824
92 | IA-LM | 1.03
93 | SW 900 | 0.622
94 | NCI-H661 | 1.02
95 | NCI-H358 | 0.699
96 | A549 | 0.932
97 | NCI-H2342 | 1.14
98 | NCI-H727 | 0.902

Same assay, conditions: first compound 0.02 µM

Row | Cell Line | relative viability
99 | EKVX | 1.32
100 | EPLC-272H | 0.849
101 | NCI-H520 | 0.68
102 | NCI-H1563 | 1.09
103 | NCI-H650 | 0.988
104 | RERF-LC-KJ | 0.909
105 | HCC-827 | 1.07
106 | NCI-H2087 | 1.07
107 | NCI-H1299 | 1.16
108 | NCI-H1623 | 0.987
109 | Calu-6 | 0.727
110 | NCI-H1703 | 0.381
111 | EBC-1 | 0.0823
112 | LCLC-103H | 0.815
113 | ABC-1 | 0.206
114 | IA-LM | 1.33
115 | SW 900 | 1.15
116 | NCI-H661 | 1.03
117 | NCI-H358 | 0.736
118 | A549 | 1.1
119 | NCI-H2342 | 1.14
120 | NCI-H727 | 1.14

Same assay, conditions: first compound 0.06325 µM

Row | Cell Line | relative viability
121 | EKVX | 0.69
122 | EPLC-272H | 0.735
123 | NCI-H520 | 0.831
124 | NCI-H1563 | 1.02
125 | NCI-H650 | 1.06
126 | RERF-LC-KJ | 0.854
127 | HCC-827 | 1.06
128 | NCI-H2087 | 0.869
129 | NCI-H1299 | 1.04
130 | NCI-H1623 | 0.872
131 | Calu-6 | 0.0962
132 | NCI-H1703 | 0.276
133 | EBC-1 | 0.089
134 | LCLC-103H | 0.839
135 | ABC-1 | 0.2
136 | IA-LM | 0.975
137 | SW 900 | 0.905
138 | NCI-H661 | 0.494
139 | NCI-H358 | 0.37
140 | A549 | 0.624
141 | NCI-H2342 | 1.03
142 | NCI-H727 | 1.03
